Test results from US8557866B2, “Isomeric mixtures of dinitro-octylphenyl esters and synergistic fungicidal mixtures therefrom” (Dow AgroSciences, LLC., priority 2007, dated 2013).

Experiments:
[1] = test system: wheat powdery mildew (ERYSGT); experiment: Synergy test (Colby), 2 day curative glasshouse studies against wheat powdery mildew; type: in vivo, Erysiphe graminis f.sp tritici on wheat; details: alone, ERYSGT 2 day curative
PYRIOR = type: in vivo, PYRIOR on rice; details: rate 200 ppm, high volume test
[2] = test system: wheat brown rust (PUCCRT); experiment: Synergy test (Colby), 1 day protectant glasshouse studies against wheat brown rust; type: in vivo, Puccinia recondita on wheat; details: alone, PUCCRT 1 day protectant
Text: (§1) Plants were inoculated with various pathogens 1 day after application of the composition of EXAMPLES 1, 4-5 (protectant tests) and 2 days before application for EXAMPLES 6-7 (curative tests). For all wheat trials, compositions were applied at growth stage 1.2, when the second leaf was expanded to ½ of its final size (12 days after seeds were first watered). Information on the growth stages of other plant species at the time composition application and on the propagation and inoculation procedures associated with each pathogen is given below.
(§2) PUCCRT: Spores of the obligate pathogen PUCCRT were collected from infected plants with a vacuum apparatus and stored at 4° C. Approximately 0.1 g of fresh spores (stored at 4° C. for less than 30 days) was mixed with several drops of Tween 20. The thick spore paste was diluted to 100 ml with water and sprayed to run-off on wheat seed seedlings. Plants inoculated with PUCCRT were kept in a 20° C. dew chamber overnight and then transferred to a 20° C. growth chamber where symptoms developed in 8-9 days.
A synergistic effect exists whenever the action of an active ingredient combination is greater than the sum of the action of the individual components.
The action to be expected E for a given active ingredient combination obeys the so-called COLBY formula and can be calculated as follows (COLBY, S. R. “Calculating synergistic and antagonistic responses of herbicide combination”. Weeds, Vol. 15, pages 20-22; 1967)
X=percent action by active ingredient I using p ppm of active ingredient
Y=percent action by active ingredient II using q ppm of active ingredient
According to Colby the expected additive action of active ingredients I+II using p+q ppm of active ingredients is E=X+Y−(X*Y)/100
If the action actual observed (O) is greater than the expected action (E), then the action of the combination is super additive, that is, there is a synergistic effect.
Protectant activity of combinations against wheat brown rust (PUCCRT).
1 day protectant glasshouse studies.

[3] = test system: Puccinia recondita (PUCCRT); experiment: High volume spray greenhouse test, 1 day protectant, wheat brown rust; type: in vivo, Puccinia recondita on wheat
Description: (§3) The composition of Example 1 was evaluated for fungicidal efficacy in a greenhouse on 9 diseases caused by plant pathogenic fungi (TABLE II). The plant cultivars used in this study were Ugni Blanc (grape), Bovowinka (crab apple), HH88 (sugar beet), M-9 (rice) and Yuma (wheat). Broad leaf plants and rice were grown in a soil-less peat-based potting mixture (Metromix), and wheat was grown in a 50/50 mix of mineral soil and Metromix. The wheat was grown at a temperature of 20° C. and all the other plants were grown at 25° C. Apple seeds were soaked in water, incubated for a short time in 200 ppm solution of benlate and washed again with water. The moist seeds were stored in a closed container at 7° C. (45° F.) and washed once a week with water until the radical had emerged 3 mm (approximately 30 days). The seeds were then planted and seedlings with 4-6 leaves were typically ready for inoculation 3 weeks later.
The composition of Example 1 was applied to seedlings at 100, 50, 25, and 12.5 ppm using a high volume spray application. The composition was formulated in water and serial dilutions made and then brought up to volume by adding water solution. Plants were sprayed to run off with 15 mL of solution on a turn-table sprayer with two opposing 4JAUPM air atomization nozzles (Spraying Systems) at a pressure of 138 kPa. Volume of spray solution on a per hectare basis is approximately 4000 L/ha. Plants were inoculated with the pathogens 1 day after application of the composition of Example 1 (1 day protectant test), incubated in a dew chamber for 24 hours with 100 percent relative humidity and then moved to an appropriate environment for disease expression for the duration of the test. Three replicate pots were sprayed for each pathogen/composition combination. Plants were evaluated for percent disease incidence 7-14 days after inoculation and the average percent disease control determined.
as §1, §2

[4] = test system: Uncinula necator (UNCINE); experiment: High volume spray greenhouse test, 1 day protectant, grape powdery mildew; type: in vivo, Uncinula necator on grapes
[5] = test system: Erysiphe cichoracearum (ERYSCI); experiment: High volume spray greenhouse test, 1 day protectant, cucumber powdery mildew; type: in vivo, Erysiphe cichoracearum on cucumbers; details: rate 200 ppm
Description: as §3
(§4) The composition of Example 1 was applied to seedlings at 100, 50, 25, and 12.5 ppm using a high volume spray application. The composition was formulated in water and serial dilutions made and then brought up to volume by adding water solution. […] Plants were evaluated for percent disease incidence 7-14 days after inoculation and the average percent disease control determined. […]

[6] = test system: Erysiphe graminis f.sp tritici (ERYSGT); experiment: High volume spray greenhouse test, 1 day protectant, wheat powdery mildew; type: in vivo, Erysiphe graminis f.sp tritici on wheat
Description: as §3, §4

[7] = test system: Venturia inaequalis (VENTIN); experiment: High volume spray greenhouse test, 1 day protectant, apple scab; type: in vivo, Venturia inaequalis on apple

Compound: CCCN(CC)CC1COC2(CCC(C(C)(C)C)CC2)O1 (centres unmarked) [Spiroxamine, spiroxamine]
- Observed Percent CONTROL ([1]; 12.50 ppm): 15.00%

Compound: C/C=C/C(=O)Oc1c(C(C)CCCCCC)cc([N+](=O)[O-])cc1[N+](=O)[O-] (centres unmarked) [Ex. 1, 2,4-dinitro-6-(1-methylheptyl)phenyl crotonate]
- Percent disease control (PYRIOR): *** (*** is 80-100 percent control of disease)
- Observed Percent CONTROL ([1]; 75 ppm): 23.00%
- Observed Percent CONTROL ([2]; 12.50 ppm): 0.00%
- Observed Percent CONTROL ([2]; 25.00 ppm): 11.76%
- Observed Percent CONTROL ([2]; 50.00 ppm): 33.33%
- Observed Percent CONTROL ([2]; 75.00 ppm): 68.63%
- Percent disease control ([3]; PUCCRT, rate 200 ppm, high volume test): *** (*** is 80-100 percent control of disease)
- Percent Disease Control PUCCRT ([3]; rate 12.5 ppm): * (* is 0-49 percent control of disease)
- Percent Disease Control PUCCRT ([3]; rate 25 ppm): * (* is 0-49 percent control of disease)
- Percent Disease Control PUCCRT ([3]; rate 50 ppm): ** (** is 50-79 percent control of disease)
- Percent Disease Control PUCCRT ([3]; rate 100 ppm): *** (*** is 80-100 percent control of disease)
- Percent Disease Control UNCINE ([4]; rate 12.5 ppm): *** (*** is 80-100 percent control of disease)
- Percent Disease Control UNCINE ([4]; rate 25 ppm): *** (*** is 80-100 percent control of disease)
- Percent Disease Control UNCINE ([4]; rate 50 ppm): *** (*** is 80-100 percent control of disease)
- Percent Disease Control UNCINE ([4]; rate 100 ppm): *** (*** is 80-100 percent control of disease)
- Percent disease control [5]: ** (** is 50-79 percent control of disease)
- Percent Disease Control ERYSGT ([6]; rate 50 ppm): *** (*** is 80-100 percent control of disease)
- Percent Disease Control ERYSGT ([6]; rate 100 ppm): *** (*** is 80-100 percent control of disease)
- Percent Disease Control VENTIN ([7]; rate 12.5 ppm): ** (** is 50-79 percent control of disease)
- Percent Disease Control VENTIN ([7]; rate 25 ppm): ** (** is 50-79 percent control of disease)
- Percent Disease Control VENTIN ([7]; rate 50 ppm): ** (** is 50-79 percent control of disease)
- Percent Disease Control VENTIN ([7]; rate 100 ppm): *** (*** is 80-100 percent control of disease)

Compound: OC(c1ccc(Cl)cc1)(c1cncnc1)c1ccccc1Cl (centres unmarked) [Fenarimol, fenarimol, reference compound]
- Percent Disease Control VENTIN ([7]; rate 25 ppm): *** (*** is 80-100 percent control of disease)

Compound: mancozeb
- Observed Percent CONTROL ([2]; 25.00 ppm): 0.00%
- Observed Percent CONTROL ([2]; 50.00 ppm): 5.88%
- Observed Percent CONTROL ([2]; 100.00 ppm): 58.82%
- Observed Percent CONTROL ([2]; 200.00 ppm): 88.24%

Compound: CO/C=C(/C(=O)OC)c1ccccc1Oc1cc(Oc2ccccc2C#N)ncn1 [Azoxystrobin, azoxystrobin]
- Observed Percent CONTROL ([1]; 6.25 ppm): 13.00%
- Observed Percent CONTROL ([1]; 12.50 ppm): 15.00%
- Observed Percent CONTROL ([1]; 25 ppm): 15%
- Observed Percent CONTROL ([1]; 75 ppm): 52%
- Observed Percent CONTROL ([1]; 100 ppm): 79%
- Percent Disease Control UNCINE ([4]; rate 25 ppm): *** (*** is 80-100 percent control of disease)

Compound: CCCCC(C#N)(Cn1cncn1)c1ccc(Cl)cc1 (centres unmarked) [Myclobutanil, myclobutanil]
- Observed Percent CONTROL ([2]; 3.13 ppm): 0.00%
- Observed Percent CONTROL ([2]; 6.25 ppm): 27.45%
- Observed Percent CONTROL ([2]; 12.50 ppm): 74.51%
- Observed Percent CONTROL ([2]; 18.75 ppm): 84.31%
